Source: PubChem BioAssay AID248 (DTP/NCI, 2004)
“And” between values parts separate entries of the source, which are not always exact repeats. Identical values can stand only once. Toxic doses and inconclusive results are not listed. No stated cut-off is given here; in the data, active means T/C of 150% or more; inactive means T/C below 125%.

Tested on: L1210 leukemia ip in BDF1 mice, survival T/C
Assay: NCI In Vivo Anticancer Drug Screen. Data for tumor model L1210 Leukemia (intraperitoneal) in B6D2F1 (BDF1) mice
Conditions: endpoint: mean survival time, higher = longer survival
How it was run: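 Tumor cells were implanted, animals were treated, and survival was followed. The result divides the treated measurement by the vehicle-control measurement.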

[1] = dose: 100.0 mg/kg/injection, schedule: Q04DX003 (ip), vehicle: Klucel (hydroxypropylcellulose) (HPC)
[2] = dose: 200.0 mg/kg/injection, schedule: Q04DX003 (ip), vehicle: Klucel (hydroxypropylcellulose) (HPC)
[3] = dose: 400.0 mg/kg/injection, schedule: Q04DX003 (ip), vehicle: Klucel (hydroxypropylcellulose) (HPC)
[4] = dose: 100.0 mg/kg/injection, schedule: Q01DX009 (ip), vehicle: Klucel (hydroxypropylcellulose) (HPC)
[5] = dose: 200.0 mg/kg/injection, schedule: Q01DX009 (ip), vehicle: Klucel (hydroxypropylcellulose) (HPC)
[6] = dose: 400.0 mg/kg/injection, schedule: Q01DX009 (ip), vehicle: Klucel (hydroxypropylcellulose) (HPC)
[7] = dose: 100.0 mg/kg/injection, schedule: Q01DX001 (ip), vehicle: Klucel (hydroxypropylcellulose) (HPC)
[8] = dose: 200.0 mg/kg/injection, schedule: Q01DX001 (ip), vehicle: Klucel (hydroxypropylcellulose) (HPC)
[9] = dose: 100.0 mg/kg/injection, schedule: Q04DX002 (ip), vehicle: Klucel (hydroxypropylcellulose) (HPC)
[10] = dose: 200.0 mg/kg/injection, schedule: Q04DX002 (ip), vehicle: Klucel (hydroxypropylcellulose) (HPC)
[11] = dose: 400.0 mg/kg/injection, schedule: Q04DX002 (ip), vehicle: Klucel (hydroxypropylcellulose) (HPC)
[12] = dose: 100.0 mg/kg/injection, schedule: Q04DX003 (ip), vehicle: saline
[13] = dose: 200.0 mg/kg/injection, schedule: Q04DX003 (ip), vehicle: saline
[14] = dose: 400.0 mg/kg/injection, schedule: Q04DX003 (ip), vehicle: saline
[15] = dose: 100.0 mg/kg/injection, schedule: Q01DX009 (ip), vehicle: saline
[16] = dose: 200.0 mg/kg/injection, schedule: Q01DX009 (ip), vehicle: saline
[17] = dose: 400.0 mg/kg/injection, schedule: Q01DX009 (ip), vehicle: saline

Measured: T/C

O=C(O)CNCc1cccnc1
inactive: dose: 100.0 mg/kg/injection, schedule: Q01DX005 (ip), vehicle: water 94 % of control | dose: 100.0 mg/kg/injection, schedule: Q04DX003 (ip), vehicle: water 97 % of control | dose: 200.0 mg/kg/injection, schedule: Q01DX005 (ip), vehicle: water 100 % of control | dose: 200.0 mg/kg/injection, schedule: Q04DX003 (ip), vehicle: water 97 % of control | dose: 400.0 mg/kg/injection, schedule: Q01DX005 (ip), vehicle: water 96 % of control | dose: 400.0 mg/kg/injection, schedule: Q04DX003 (ip), vehicle: water 104 % of control

N#Cc1cc(Cl)cn1O
inactive: dose: 100.0 mg/kg/injection, schedule: Q04DX002 (ip), vehicle: other 91 % of control | dose: 200.0 mg/kg/injection, schedule: Q04DX002 (ip), vehicle: other 99 % of control

COc1ccc(C=Nc2cccc3ccccc23)cc1
inactive: [1] 98 % of control | [2] 96 % of control | [3] 103 % of control

OC(COC(c1ccccc1)(c1ccccc1)c1ccccc1)C(O)CC1SCCS1 (stereo not drawn)
inactive: dose: 50.0 mg/kg/injection, schedule: Q01DX001 (ip), vehicle: carboxymethylcellulose (CMC) 105 % of control | dose: 100.0 mg/kg/injection, schedule: Q01DX001 (ip), vehicle: carboxymethylcellulose (CMC) 105 % of control | dose: 200.0 mg/kg/injection, schedule: Q01DX001 (ip), vehicle: carboxymethylcellulose (CMC) 94 % of control | dose: 400.0 mg/kg/injection, schedule: Q01DX001 (ip), vehicle: carboxymethylcellulose (CMC) 100 % of control

COC(=O)c1ccccc1N1C(=O)C=CC1=O
inactive: dose: 6.25 mg/kg/injection, schedule: Q01DX009 (ip), vehicle: saline with Tween-80 97 % of control | dose: 12.5 mg/kg/injection, schedule: Q01DX009 (ip), vehicle: saline with Tween-80 98 % of control | dose: 25.0 mg/kg/injection, schedule: Q01DX009 (ip), vehicle: saline with Tween-80 103 % of control

O=S(=O)(Nc1cccc(C(F)(F)F)c1)c1ccccc1
inactive: [4] 106 % of control | [1] 98 % of control | [5] 107 % of control | [2] 97 % of control | [6] 101 % of control | [3] 95 % of control

CC1CCCCN1Cc1ccccc1COC(=O)c1ccc(Cl)cc1 (stereo not drawn)
inactive: [7] 98 % of control | [8] 107 % of control

O=C(Nc1ccccc1C(F)(F)F)OCCN1CCNC1=S
inactive: [7] 106 % of control | [4] 96 % of control and 103 % of control | [9] 94 % of control and 96 % of control | [1] 101 % of control | [8] 103 % of control | [5] 98 % of control and 100 % of control | [10] 95 % of control and 111 % of control | [2] 106 % of control | dose: 400.0 mg/kg/injection, schedule: Q01DX001 (ip), vehicle: Klucel (hydroxypropylcellulose) (HPC) 104 % of control | [6] 95 % of control and 100 % of control | [11] 94 % of control and 104 % of control | [3] 89 % of control

CCCCCCCC(O)CCCCC (stereo not drawn)
inactive: [4] 104 % of control | [1] 93 % of control | [5] 98 % of control | [2] 104 % of control | [6] 102 % of control | [3] 89 % of control

CCCCCCCSc1ccc(C(=O)O)cc1
inactive: dose: 37.5 mg/kg/injection, schedule: Q01DX009 (ip), vehicle: saline 91 % of control | dose: 75.0 mg/kg/injection, schedule: Q01DX001 (ip), vehicle: acetone 102 % of control | dose: 75.0 mg/kg/injection, schedule: Q01DX009 (ip), vehicle: saline 97 % of control | dose: 75.0 mg/kg/injection, schedule: Q04DX003 (ip), vehicle: acetone 102 % of control | dose: 150.0 mg/kg/injection, schedule: Q01DX001 (ip), vehicle: acetone 95 % of control | dose: 150.0 mg/kg/injection, schedule: Q01DX009 (ip), vehicle: saline 90 % of control | dose: 150.0 mg/kg/injection, schedule: Q04DX003 (ip), vehicle: acetone 102 % of control | dose: 300.0 mg/kg/injection, schedule: Q01DX001 (ip), vehicle: acetone 98 % of control | dose: 300.0 mg/kg/injection, schedule: Q04DX003 (ip), vehicle: acetone 102 % of control

O=C1CN=C(c2ccccc2)c2cc(Cl)ccc2N1
inactive: dose: 25.0 mg/kg/injection, schedule: Q01DX009 (ip), vehicle: Klucel (hydroxypropylcellulose) (HPC) 92 % of control | dose: 50.0 mg/kg/injection, schedule: Q01DX009 (ip), vehicle: Klucel (hydroxypropylcellulose) (HPC) 94 % of control | [4] 89 % of control | [9] 106 % of control | [5] 98 % of control | [10] 93 % of control | [11] 89 % of control

CCOC(=O)C(=CN1CCCCC1)C(=O)OCC
inactive: [12] 98 % of control | [13] 101 % of control | [14] 95 % of control

O=C(c1cccnc1)n1cc2c(n1)C1=C(CCCC1)CC2
inactive: [1] 90 % of control | [2] 89 % of control | [3] 86 % of control

CC1CCCN(P(c2ccccc2)N2CCCC(C)C2)C1 (stereo not drawn)
inactive: dose: 100.0 mg/kg/injection, schedule: Q04DX002 (sc), vehicle: olive oil, sesame oil, peanut oil 97 % of control | dose: 200.0 mg/kg/injection, schedule: Q04DX002 (sc), vehicle: olive oil, sesame oil, peanut oil 100 % of control | dose: 400.0 mg/kg/injection, schedule: Q04DX002 (sc), vehicle: olive oil, sesame oil, peanut oil 100 % of control

CC(=O)/C(=N\N=C(N)N)c1ccccc1
inactive: dose: 1.88 mg/kg/injection, schedule: Q01DX Z (ip), vehicle: saline 102 % of control | dose: 3.75 mg/kg/injection, schedule: Q01DX Z (ip), vehicle: saline 93 % of control | dose: 3.75 mg/kg/injection, schedule: Q01DX Z (oral), vehicle: other 90 % of control | dose: 7.5 mg/kg/injection, schedule: Q01DX Z (ip), vehicle: saline 98 % of control | dose: 7.5 mg/kg/injection, schedule: Q01DX Z (oral), vehicle: other 98 % of control | dose: 15.0 mg/kg/injection, schedule: Q01DX Z (oral), vehicle: other 96 % of control

Cc1cc(C(=O)NNC(C)Cc2ccccc2)no1 (stereo not drawn)
inactive: dose: 4.6 mg/kg/injection, schedule: Q01DX009 (ip), vehicle: Klucel (hydroxypropylcellulose) (HPC) 94 % of control | dose: 9.3 mg/kg/injection, schedule: Q01DX009 (ip), vehicle: Klucel (hydroxypropylcellulose) (HPC) 94 % of control | dose: 18.75 mg/kg/injection, schedule: Q01DX009 (ip), vehicle: Klucel (hydroxypropylcellulose) (HPC) 97 % of control | dose: 37.5 mg/kg/injection, schedule: Q01DX009 (ip), vehicle: Klucel (hydroxypropylcellulose) (HPC) 97 % of control

CC(=O)C(Cc1ccccc1)(c1ccccc1)c1ccccc1
inactive: dose: 50.0 mg/kg/injection, schedule: Q01DX001 (ip), vehicle: saline 103 % of control | dose: 100.0 mg/kg/injection, schedule: Q01DX001 (ip), vehicle: saline 103 % of control | dose: 200.0 mg/kg/injection, schedule: Q01DX001 (ip), vehicle: saline 97 % of control | dose: 400.0 mg/kg/injection, schedule: Q01DX001 (ip), vehicle: saline 97 % of control

CC(C)=NOCCCCON=C(C)C
inactive: dose: 100.0 mg/kg/injection, schedule: Q01DX001 (ip), vehicle: saline with Tween-80 101 % of control | dose: 100.0 mg/kg/injection, schedule: Q04DX002 (ip), vehicle: saline with Tween-80 95 % of control and 103 % of control | dose: 200.0 mg/kg/injection, schedule: Q01DX001 (ip), vehicle: saline with Tween-80 100 % of control | dose: 200.0 mg/kg/injection, schedule: Q04DX002 (ip), vehicle: saline with Tween-80 109 % of control and 88 % of control | dose: 400.0 mg/kg/injection, schedule: Q01DX001 (ip), vehicle: saline with Tween-80 92 % of control | dose: 400.0 mg/kg/injection, schedule: Q04DX002 (ip), vehicle: saline with Tween-80 103 % of control and 88 % of control

CCOC(=O)/C(C#N)=C/C(C)c1ccccc1 (stereo not drawn)
inactive: [15] 108 % of control | [16] 104 % of control | [17] 95 % of control

CC(C)(CNc1ccc(C(=O)O)cc1)[N+](=O)[O-]
inactive: [15] 93 % of control | [12] 95 % of control | [16] 90 % of control | [13] 98 % of control | [17] 87 % of control | [14] 90 % of control
